Where a name gives a salt, the structure may show the parent alone. Read-outs that look alike come from different tables or passages of the source.
Target: T1, human NaPi-IIb (Homo sapiens, UniProt O95436)
T1 construct: expressed in transfected cells
T1 sequence (O95436 1-690): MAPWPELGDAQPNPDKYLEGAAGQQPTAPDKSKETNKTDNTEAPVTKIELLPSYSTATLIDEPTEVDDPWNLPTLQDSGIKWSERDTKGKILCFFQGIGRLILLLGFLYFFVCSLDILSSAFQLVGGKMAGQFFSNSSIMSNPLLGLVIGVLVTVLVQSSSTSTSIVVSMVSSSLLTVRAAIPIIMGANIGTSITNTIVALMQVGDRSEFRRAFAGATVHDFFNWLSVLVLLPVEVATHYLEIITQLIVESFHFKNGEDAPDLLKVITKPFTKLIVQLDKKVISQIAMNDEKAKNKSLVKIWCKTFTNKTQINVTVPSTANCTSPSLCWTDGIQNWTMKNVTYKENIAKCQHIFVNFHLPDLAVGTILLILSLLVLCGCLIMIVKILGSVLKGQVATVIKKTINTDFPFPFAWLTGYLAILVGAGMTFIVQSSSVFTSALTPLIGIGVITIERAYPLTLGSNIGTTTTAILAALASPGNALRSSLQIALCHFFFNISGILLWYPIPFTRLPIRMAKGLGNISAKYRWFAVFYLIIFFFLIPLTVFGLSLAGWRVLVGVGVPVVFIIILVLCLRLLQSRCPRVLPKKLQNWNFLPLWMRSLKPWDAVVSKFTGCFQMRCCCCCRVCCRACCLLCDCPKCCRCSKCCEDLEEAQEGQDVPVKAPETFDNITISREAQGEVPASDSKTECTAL
Test: Inhibitory effect on 33PO4 uptake into human NaPi-IIb-expressing CHO cells
Assay type: cell-based
Summary of the method: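 Uptake of ³³PO4 was measured by scintillation counting after ice-cold buffer A washes. Cells were CHO stably expressing human NaPi-IIb, seeded overnight, and exposed to ³³PO4 in buffer A at room temperature.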

[1] = read-out: IC50 against 33PO4 uptake into human NaPi-IIb-expressing cells

| SMILES | IC50 (read-out: IC50) | IC50 [1] |
| --- | --- | --- |
| CN1N(Cc2ccc(OCCn3cncn3)c(F)c2F)C(=O)C(C(=O)Nc2ccc(C(F)(F)F)cc2-c2cc(C(F)(F)F)ncn2)=C(O)C12CCC2 [Example 352] | – | 16.7 µM |
| COCCCN(C)C(=O)c1cc(CN2C(=O)C(C(=O)Nc3ccc(C(F)(F)F)cc3-c3cc(C(F)(F)F)ncn3)=C(O)C3(CCCC3)N2C)c(F)c(F)c1OCCN(C)CCOC [Example 438] | – | 21.9 µM |
| CN(CCOCCC(=O)N(C)C[C@H](O)[C@@H](O)[C@H](O)[C@H](O)CO)CCOc1ccc(CN2C(=O)C(C(=O)Nc3ccc(C(F)(F)F)cc3-c3cc(C(F)(F)F)ncn3)=C(O)C3(CCCC3)N2C)c(F)c1F [Example 425] | – | 28.1 µM |
| C[C@]12CCCN1N(Cc1c(F)cc(C#CCCCCCOC[C@H](O)[C@@H](O)CO)cc1F)C(=O)C(C(=O)Nc1ccc(C(F)(F)F)cc1-c1ccc(C(F)(F)F)nc1)=C2O [Example 124, (4aR)-1-[[2,6-Difluoro-4-[7-[(2S,3S)-2,3,4-trihydroxybutoxy]hept-1-ynil]phenyl]methyl]-4-hydroxy-4a-methyl-2-oxo-N-[4-(trifluoromethyl)-2-[6-(trifluoromethyl)pyridin-3-yl]phenyl]-6,7-dihydro-5H-pyrrolo[1,2-b]pyridazine-3-carboxamide] | 2.5 µM | – |
| COCCOCCOCCCCCCCCN1C(=O)C(C(=O)Nc2ccc(C(F)(F)F)cc2-c2cc(C(F)(F)F)ncn2)=C(O)[C@@]2(C)CCCN12 [Example 236] | 24.7 µM | – |
| CCC1(CC)C(O)=C(C(=O)Nc2ccc(Cl)cc2-c2cc(C(F)(F)F)ncn2)C(=O)N(Cc2ccc(OCCN3CCOCC3)c(F)c2F)N1C [Example 292] | 18.4 µM | – |
| COCCOCCOc1ccc(CN2C(=O)C(C(=O)Nc3ccc(C(F)(F)F)cc3-c3cc(C(F)(F)F)ncn3)=C(O)C3(CCC3)N2C)c(F)c1F [Example 401, 6-[[2,3-Difluoro-4-[2-(2-methoxyethoxy)ethoxy]phenyl]methyl]-9-hydroxy-5-methyl-7-oxo-N-[4-(trifluoromethyl)-2-[6-(trifluoromethyl)pyrimidin-4-yl]phenyl]-5,6-diazaspiro[3.5]non-8-ene-8-carboxamide] | – | 14.5 µM |
| CSc1ccc(-c2cc(C(F)(F)F)ccc2NC(=O)C2=C(O)[C@@]3(C)CCCN3N(Cc3ccc(OCCCCOC[C@H](O)CO)c(F)c3F)C2=O)cn1 [Example 120, (4aR)-1-[[4-[4-[(2R)-2,3-Dihydroxypropoxy]butoxy]-2,3-difluorophenyl]methyl]-4-hydroxy-4a-methyl-N-[2-(6-methylsulfanylpyridin-3-v1)-4-(trifluoromethyl)phenyl]-2-oxo-6,7-dihydro-5H-pyrrolo[1,2-b]pyridazine-3-carboxamide] | 20.5 µM | – |
| C[C@]12CCCN1N(Cc1cccc(F)c1F)C(=O)C(C(=O)Nc1ccc(C(F)(F)F)cc1-c1cnc(N3CC4(COC4)C3)c(C#N)c1)=C2O [Example 111, (4aR)—N-[2-[5-Cyano-6-(2-oxa-6-azaspiro[3.3]heptan-6-yl)pyridin-3-yl]-4-(trifluoromethyl)phenyl]-1-[(2,3-difluorophenyl)methyl]-4-hydroxy-4a-methyl-2-oxo-6,7-dihydro-5H-pyrrolo[1,2-b]pyridazine-3-carboxamide] | 20 µM | – |
| CN(C[C@H](O)[C@@H](O)[C@H](O)[C@H](O)CO)C(=O)COCCOCCOCCOCCOc1ccc(CN2C(=O)C(C(=O)Nc3ccc(C(F)(F)F)cc3-c3cc(C(F)(F)F)ncn3)=C(O)C3(CCCC3)N2C)c(F)c1F [Example 441, 7-[[2,3-Difluoro-4-[2-[2-[2-[2-[2-[methyl-[(2S,3R,4R,5R)-2,3,4,5,6-pentahydroxyhexyl]amino]-2-oxoethoxy]ethoxy]ethoxy]ethoxy]ethoxy]phenyl]methyl]-10-hydroxy-6-methyl-8-oxo-N-[4-(trifluoromethyl)-2-[6-(trifluoromethyl)pyrimidin-4-yl]phenyl]-6,7-diazaspiro[4.5]dec-9-ene-9-carboxamide] | – | 21.4 µM |
| CN1N(Cc2ccc(OCCCOCCCO)c(F)c2F)C(=O)C(C(=O)Nc2ccc(C(F)(F)F)cc2-c2cc(C(F)(F)F)ncn2)=C(O)C12CCCC2 [Example 398] | – | 9.9 µM |
| CN1N(Cc2ccc(OCCCCCOC[C@H](O)CO)c(F)c2F)C(=O)C(C(=O)Nc2ccc(C(F)(F)F)cc2-c2cc(C(F)(F)F)ncn2)=C(O)C12CCC2 [Example 391] | – | 7 µM |
| CN1N(Cc2ccc(NCCCN3CCOCC3)c(F)c2F)C(=O)C(C(=O)Nc2ccc(C(F)(F)F)cc2-c2cc(C(F)(F)F)ncn2)=C(O)C12CCCC2 [Example 446] | – | 11.1 µM |
| CN1N(Cc2ccc(OCCN3[C@@H]4COC[C@H]3C4)c(F)c2F)C(=O)C(C(=O)Nc2ccc(C(F)(F)F)cc2-c2cc(C(F)(F)F)ncn2)=C(O)C12CCC2 [Example 339] | 19.1 µM | – |
| C[C@]12CCCN1N(Cc1cccc(C#N)c1)C(=O)C(C(=O)Nc1ccc(C(F)(F)F)cc1-c1cc(C(F)(F)F)ncn1)=C2O [Example 179] | 18.9 µM | – |

Further molecules by falling IC50 (read-out: IC50), results first:

| IC50 (read-out: IC50) | IC50 [1] | SMILES |
| --- | --- | --- |
| 17.8 µM | – | CN1[C@@H](C(C)(C)C)C(O)=C(C(=O)Nc2ccc(C(F)(F)F)cc2C(F)(F)F)C(=O)N1Cc1ccc(OCCN2CCOCC2)c(F)c1F [Example 277] |
| 16.5 µM | – | Cc1nc(NC(=O)C2=C(O)[C@H](C(C)(C)C)N(C)N(Cc3cccc(F)c3F)C2=O)ccc1Br [Example 241] |
| 16.3 µM | – | CSc1ccc(-c2cc(C(F)(F)F)ccc2NC(=O)C2=C(O)C3(CCCC3)N(C)N(Cc3ccc(OCCN4CCOCC4)c(F)c3F)C2=O)cn1 [Example 289] |
| 14.5 µM | – | C[C@]12CCCN1N(Cc1ccc(F)c(F)c1)C(=O)C(C(=O)Nc1cc(F)c(Br)c(F)c1)=C2O [Example 191] |
| 13.3 µM | – | CN1[C@@H](C(C)(C)C)C(O)=C(C(=O)Nc2ccc(Cl)cc2-c2cc(C(F)(F)F)ncn2)C(=O)N1Cc1ccc(OCCN2CCOCC2)c(F)c1F [Example 265, (3S)-3-tert-Butyl-N-[4-chloro-2-[6-(trifluoromethyl)pyrimidin-4-yl]phenyl]-1-[[2,3-difluoro-4-(2-morpholin-4-ylethoxy)phenyl]methyl]-4-hydroxy-2-methyl-6-oxo-3H-pyridazine-5-carboxamide] |
| 12 µM | – | C[C@]12CCCN1N(Cc1ccc(OCCN3CCOCC3)c(F)c1F)C(=O)C(C(=O)Nc1ccc(C(F)(F)F)nc1-c1cncc(C(F)(F)F)c1)=C2O [Example 106] |
| 11 µM | – | CN1N(Cc2ccc(OCCN3CCOCC3)c(F)c2F)C(=O)C(C(=O)Nc2ccc(Cl)cc2-c2ccc(C(F)(F)F)nc2)=C(O)C12CCCC2 [Example 288] |
| 9.3 µM | – | CN1N(Cc2cccc(F)c2F)C(=O)C(C(=O)Nc2ccc(C(F)(F)F)cc2-c2cc(C(F)(F)F)ncn2)=C(O)C12CCC2 [Example 300] |
| 8.9 µM | – | C[C@]12CCCN1N(Cc1cccc(F)c1F)C(=O)C(C(=O)Nc1ccc(Br)cc1)=C2O [Example 77] |
| 8.5 µM | – | C[C@]12CCCN1N(Cc1c(Cl)cc(OCCN3CCOCC3)cc1Cl)C(=O)C(C(=O)Nc1ccc(C(F)(F)F)nc1-c1ccc(C(F)(F)F)nc1)=C2O [Example 148, (4aR)-1-[[2,6-Dichloro-4-(2-morpholin-4-ylethoxy)phenyl]methyl]-4-hydroxy-4a-methyl-2-oxo-N-[6-(trifluoromethyl)-2-[6-(trifluoromethyl)pyridin-3-yl]pyridin-3-yl]-6,7-dihydro-5H-pyrrolo[1,2-b]pyridazine-3-carboxamide hydrochloride] |
| 7.9 µM | – | C[C@]12CCCN1N(Cc1cccc(F)c1F)C(=O)C(C(=O)Nc1ccc(C(F)(F)F)cc1-c1cc(Cl)cnc1Cl)=C2O [Example 84] |
| 6.7 µM | – | C[C@]12CCCN1N(Cc1cccc(F)c1F)C(=O)C(C(=O)Nc1ccc(Cl)cn1)=C2O [Example 79] |
| 6.5 µM | – | C[C@]12CCCN1N(Cc1ccccc1F)C(=O)C(C(=O)Nc1ccc(C(F)(F)F)cc1-c1cc(C(F)(F)F)ncn1)=C2O [Example 207] |
| 6.1 µM | – | COc1cc(CN2C(=O)C(C(=O)Nc3ccc(C(F)(F)F)cc3-c3ccc(C(F)(F)F)nc3)=C(O)[C@@]3(C)CCCN23)cc(OC)c1 [Example 202] |
| 5.1 µM | – | C[C@]12CCCN1N(Cc1ccc(Cl)cc1)C(=O)C(C(=O)Nc1ccc(C(F)(F)F)cc1-c1cc(C(F)(F)F)ncn1)=C2O [Example 182] |
| 4.7 µM | – | C[C@]12CCCN1N(Cc1cc(F)ccc1Br)C(=O)C(C(=O)Nc1cc(F)c(Br)c(F)c1)=C2O [Example 217] |
| 4.4 µM | – | CC(C)[C@H]1C(O)=C(C(=O)Nc2ccc(C(F)(F)F)cc2-c2ccc(C(F)(F)F)nc2)C(=O)N(Cc2cccc(F)c2F)N1C [Example 253] |
| 2.6 µM | – | C[C@]12CCCN1N(Cc1ccccc1Cl)C(=O)C(C(=O)Nc1ccc(C(F)(F)F)cc1-c1ccc(C(F)(F)F)nc1)=C2O [Example 168] |
| 2.2 µM | – | C[C@]12CCCN1N(Cc1ccc(F)c(F)c1)C(=O)C(C(=O)Nc1ccc(C(F)(F)F)cc1-c1ccc(C(F)(F)F)nc1)=C2O [Example 170] |
| 1.8 µM | – | C[C@]12CCCN1N(Cc1ccc(F)cc1)C(=O)C(C(=O)Nc1ccc(C(F)(F)F)cc1-c1ccc(C(F)(F)F)nc1)=C2O [Example 199] |
| 1.3 µM | – | C[C@]12CCCN1N(Cc1c(F)cc(CCCCCCCOC[C@H](O)[C@@H](O)CO)cc1F)C(=O)C(C(=O)Nc1ccc(C(F)(F)F)cc1-c1ccc(C(F)(F)F)nc1)=C2O [Example 125] |
